Source: patent US4016287A, “Dermatological compositions containing an acylamino-carboxylic acid or an alkyl ester thereof” (Boehringer Ingelheim GmbH, priority 1975, dated 1977)

Experiments:
[1] = system: dinitrochlorobenzene-eczema; assay: antiphlogistic activity, dinitrochlorobenzene-eczema method; type: in vivo, guinea pigs; details: Cavia porcellus, topical; ethanolic 5% solution on shaved flanks, 30 minutes before 1% dinitrochlorobenzene; visual evaluation after 22 hours; read-out: Inhibition of dinitrochlorobenzene-eczema over control
Experimental: The antiphlogistic activity was ascertained by the dinitrochlorobenzene-eczema method [see A. I. Scott, Brit. J. Dermatol. 77, 586 (1965)].
The compound to be tested was applied in the form of an ethanolic 5% solution to the shaved flanks of a group of 10 guinea pigs which has been sensitized with dinitrochlorobenzene. An analogous control group was treated with only ethanol. The treatment was effected 30 minutes prior to release of the allergic reaction with a 1% solution of dinitrochlorobenzene in acetone. The results were visually evaluated 22 hours thereafter.

[2] = system: sebaceous gland excretion; assay: sebaceous gland excretion-inhibiting activity, glass block method (refatting of forehead skin); type: in vivo, human; details: ethanolic 5% solution, 0.25 ml on half of forehead; for Average extinction values, Difference: difference between treated and controls (ethanol); for Average extinction values, Treated: skin fat removed after 90 minutes, refatting measured after three additional hours, treated group
Experimental: The sebaceous gland excretion-inhibiting activity was ascertained by the glass block method described by Schaefer and Kuhn-Bussius in Arch. Klin. exper. Derm. 238, 429-435 (1970). Small glass blocks, the facets of which have been roughened or frosted, are pressed against the skin surface where the amount of skin fat is measured. The skin fat or sebum transferred from the skin to the glass facet makes the blocks more translucent, and the increase in translucence is directly proportional to the amount of sebum present in the skin area. The translucence is measured in a photometer. Prior to measurement of the degree of refating of the skin, the skin fat was removed with a plastic foil.
0.25 ml of an ethanolic 5% solution of the compound to be tested was applied to half of the forehead of 5 to 10 human test subjects, while 0.25 ml of ethanol was applied to half of the forehead of a group of 5 to 10 control subjects. After 90 minutes the skin fat was removed with the plastic foil, and after three additional hours the degree of refatting was determining with the aid of the small glass blocks referred to above.

[3] = acute toxicity, LD50 mouse i.p.; details: in vivo, ip

For CCCCCCCCCCCCCCCCOC(=O)CNC(C)=O [A, n-acetyl-glycine hexadecyl ester], the inhibition in vivo at 5 % [1] was 46%, the “Average extinction values, Difference” value [2] was 9.5 and the “Average extinction values, Treated” value [2] was 75.5.
In the case of CCCCCCCCCCCCCCCCOC(=O)C(C)NC(C)=O (stereo not drawn) [B, n-acetyl-alanine hexadecyl ester], the inhibition in vivo at 5 % [1] is reported as 19%, the “Average extinction values, Difference” value [2] is reported as 7.5 and the “Average extinction values, Treated” value [2] is reported as 74.0.
With CCCCCCCCCCCCCCCCOC(=O)CNC(=O)c1ccccc1 [Compound C, n-benzoyl-glycine hexadecyl ester] the LD50 [3] was greater than 4000 mg/kg, the inhibition in vivo at 5 % [1] was 28% and the “Average extinction values, Difference” value [2] was 16.5. For the same compound, the “Average extinction values, Treated” value [2] was 78.5.
With CCCCCCCCCCCCCCCCOC(=O)CN(C)C(C)=O [D, n-acetyl-sarcosine hexadecyl ester] the inhibition in vivo at 5 % [1] was 20%, the “Average extinction values, Difference” value [2] was 9.0 and the “Average extinction values, Treated” value [2] was 86.5.
With CCCCCCCCCCCCCCCCOC(=O)CNC=O [F, n-formyl-glycine hexadecyl ester] the inhibition in vivo at 5 % [1] was 50%.
With CCCCCCCCCCCCCCCCOC(=O)CNC(=O)CC [G, n-propionyl-glycine hexadecyl ester] the inhibition in vivo at 5 % [1] was 34%.
CCCCCCCCCCCCCC(=O)NCC(=O)O [H, n-tetradecanoyl-glycine] showed an inhibition in vivo at 5 % [1] of 38%.
With O=C(O)CCCNC(=O)c1ccc(-c2ccccc2)cc1 [I, n-(4'-phenyl-benzoyl)-4-amino-butyric acid] the inhibition in vivo at 5 % [1] was 36%.
With CCCCCCCCCCCCCCCCOC(=O)CCNC(C)=O [J, n-acetyl-β-alanine hexadecyl ester] the inhibition in vivo at 5 % [1] was 35%.
